Tests used:
TrkB (h) = target: T1, TrkB (h) (Homo sapiens, UniProt Q16620); assay: Enzymatic activity test, TrkB (h); type: biochemical; details: 10 μM [γ-33P]-ATP, 40 minutes, room temperature
T1 construct: purchased
Protocol: (§1) Assay 4: Enzymatic Activity Test of the Compound of the Present Invention
(§2) Test substances: the compounds of the present invention, wherein the structures and preparations thereof were as described above.
(§3) Preparation of the Compound Stock Solution
(§4) The compound was dissolved in 100% DMSO to prepare a stock solution with a maximum concentration of 500 μM.
(§5) Preparation of the Compound Working Solution
(§6) The compound stock solution was diluted to final concentrations of 500, 150, 50, 15. 5, 1.5, 0.5, 0.15 and 0.05 μM to become the compound working solutions (50×).
(§7) Preparation of Different Enzyme Reaction Solutions
The TrkB (h) enzyme was dissolved in 8 mM MOPS (pH 7.0), 0.2 mM EDTA, and 0.1 mg/mL poly(Glu, Tyr) 4:1 to prepare an enzyme solution having a final concentration of 3.1 nM. The enzymatic reaction was activated by using 10 mM magnesium acetate and 10 μM [γ-^33P]-ATP to form an Mg/ATP mixed solution,
(§8) In a 384-well plate, the compound working solution was added to final concentrations of 10000, 3000, 1000, 300, 100, 30, 10, 3, and 1 nM. Then different enzyme reaction solutions prepared according to the above conditions were added. The incubation was carried out for 40 minutes at room temperature. The test was terminated by the addition of a 0.5% phosphoric acid solution. 10 μL of the reaction solution was taken and dropped to the P30 filter paper. The filter paper was washed 4 times with 0.425% phosphoric acid solution and once with methanol, and then placed on a scintillation counter. The […] IC50 values were calculated using GraphPad 5.0 software.

[1] = target: T2, Ba/F3 LMNA-NTRK1-V573M cells (Homo sapiens, UniProt P04629, V573M, cells depend on it); assay: Cell viability test (CTG), Ba/F3 LMNA-NTRK1-V573M; type: cell-based; details: NTRK1 gene mutant cell, 72 hours, read-out: IC50 Ba/F3 LMNA-NTRK1-V573M
T2 construct: Ba/F3 LMNA-NTRK1 G667C and Ba/F3 LMNA-NTRK1-V573M are NTRK1 gene mutant cells; fused on or other part: P02545 (Prelamin-A/C)
Description: (§9) Assay 8: Cell viability test of the compounds of the present invention
Ba/F3 LMNA-NTRK1 G667C and Ba/F3 LMNA-NTRK1-V573M are NTRK1 gene mutant cells.
(§10) Test substances: the compounds of the present invention, wherein the structures thereof were as described above.
(§11) Test instrument: SpectraMax multi-label microplate reader.
(§12) Each cell was inoculated in a 96-well plate and adherent cells were cultivated overnight. Different concentrations of the compounds (9 dose groups, 3.16 times DMSO serial dilution) were added to give the final concentration of 0.1-1000 nM, and the final DMSO content was 1‰. The negative control wells contained the medium containing 1‰ DMSO. The cells were incubated at 37° C. in a condition of 5% CO2 and 95% humidity for 72 hours for use. An equal volume of CTG reagent was added to each well, and the cells were lysed by shaking for 5 minutes on an orbital shaker, and incubated for 20 minutes at room temperature to stabilize the cold light signal. The cold light signal was read with a microplate reader. Data were analyzed using GraphPad Prism 5.0 software, and data were fitted using nonlinear S-curve regression to derive a dose-response curve and thereby calculate IC50 values.

Ba/F3 LMNA-NTRK1 cells = target: T3, Ba/F3 LMNA-NTRK1 cells (Homo sapiens, UniProt P04629); assay: Cell viability test (CTG), Ba/F3 LMNA-NTRK1; type: cell-based; details: NTRK1 wild type cell, 72 hours, read-out: IC50 Ba/F3 LMNA-NTRK1
T3 construct: fused on or other part: P02545 (Prelamin-A/C)
Protocol: as §9
Ba/F3 LMNA-NTRK1 is an NTRK1 wild type cell;
as §10, §11, §12

Axl (h) = target: T4, Axl (h) (Homo sapiens, UniProt P30530); assay: Enzymatic activity test, Axl (h); type: biochemical; details: 10 μM [γ-33P]-ATP, 40 minutes, room temperature
T4 construct: purchased
T4 sequence (P30530 26-894): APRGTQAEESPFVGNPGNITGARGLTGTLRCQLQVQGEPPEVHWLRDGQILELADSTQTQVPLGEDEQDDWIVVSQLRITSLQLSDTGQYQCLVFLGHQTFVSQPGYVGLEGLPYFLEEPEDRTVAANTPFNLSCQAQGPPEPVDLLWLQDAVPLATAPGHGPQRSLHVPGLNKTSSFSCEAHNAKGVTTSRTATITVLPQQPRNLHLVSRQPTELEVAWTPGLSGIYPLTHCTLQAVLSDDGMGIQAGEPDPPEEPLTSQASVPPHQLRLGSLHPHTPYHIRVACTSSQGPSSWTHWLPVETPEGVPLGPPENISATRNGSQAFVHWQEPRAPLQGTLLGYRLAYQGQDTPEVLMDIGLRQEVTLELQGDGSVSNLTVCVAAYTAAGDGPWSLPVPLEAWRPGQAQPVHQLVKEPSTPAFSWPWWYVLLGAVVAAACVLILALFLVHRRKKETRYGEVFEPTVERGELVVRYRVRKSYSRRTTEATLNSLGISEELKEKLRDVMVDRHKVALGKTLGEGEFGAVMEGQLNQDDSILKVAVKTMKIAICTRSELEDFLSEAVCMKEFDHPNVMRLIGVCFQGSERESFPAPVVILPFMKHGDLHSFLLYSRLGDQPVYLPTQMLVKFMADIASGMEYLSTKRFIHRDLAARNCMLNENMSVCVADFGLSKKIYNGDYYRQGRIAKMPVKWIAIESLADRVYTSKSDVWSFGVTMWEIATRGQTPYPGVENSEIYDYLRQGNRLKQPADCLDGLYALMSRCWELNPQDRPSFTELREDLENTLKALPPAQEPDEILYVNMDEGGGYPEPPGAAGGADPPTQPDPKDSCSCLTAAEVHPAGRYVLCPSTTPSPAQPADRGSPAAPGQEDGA
Protocol: Assay 3: Enzymatic Activity Test of the Compounds of the Present Invention
as §2
(1) Preparation of the Compound Stock Solution
as §4
(2) Preparation of the Compound Working Solution
The compound stock solution was diluted to final concentrations of 500, 150, 50, 15, 5, 1.5, 0.5, 0.15 and 0.05 μM to become the compound working solutions (50×).
(3) Preparation of Different Enzyme Reaction Solutions
The Axl (h) enzyme was dissolved in 8 mM MOPS (pH 7.0), 0.2 mM EDTA, and 250 μM KKSRGDYMTMQIG to prepare an enzyme solution having a final concentration of 1.7 nM. The enzymatic reaction was activated by using 10 mM magnesium acetate and 10 μM [γ-^33P]-ATP to form an Mg/ATP mixed solution.
as §8

TrkA (h) = target: T5, TrkA (h) (Homo sapiens, UniProt P04629); assay: Enzymatic activity test, TrkA (h); type: biochemical; details: 10 μM [γ-33P]-ATP, 40 minutes, room temperature
T5 construct: purchased
Protocol: as §1, §2, §3, §4, §5, §6, §7
The TrkA (h) enzyme was dissolved in 8 mM MOPS (pH 7.0), 0.2 mM EDTA, and 250 μM KKKSPGEYVNIEFG to prepare an enzyme solution having a final concentration of 1.7 nM. The enzymatic reaction was activated by using 10 mM magnesium acetate and 10 μM [γ-^33P]-ATP to form an Mg/ATP mixed solution.
as §8

T5 sequence (P04629 33-796): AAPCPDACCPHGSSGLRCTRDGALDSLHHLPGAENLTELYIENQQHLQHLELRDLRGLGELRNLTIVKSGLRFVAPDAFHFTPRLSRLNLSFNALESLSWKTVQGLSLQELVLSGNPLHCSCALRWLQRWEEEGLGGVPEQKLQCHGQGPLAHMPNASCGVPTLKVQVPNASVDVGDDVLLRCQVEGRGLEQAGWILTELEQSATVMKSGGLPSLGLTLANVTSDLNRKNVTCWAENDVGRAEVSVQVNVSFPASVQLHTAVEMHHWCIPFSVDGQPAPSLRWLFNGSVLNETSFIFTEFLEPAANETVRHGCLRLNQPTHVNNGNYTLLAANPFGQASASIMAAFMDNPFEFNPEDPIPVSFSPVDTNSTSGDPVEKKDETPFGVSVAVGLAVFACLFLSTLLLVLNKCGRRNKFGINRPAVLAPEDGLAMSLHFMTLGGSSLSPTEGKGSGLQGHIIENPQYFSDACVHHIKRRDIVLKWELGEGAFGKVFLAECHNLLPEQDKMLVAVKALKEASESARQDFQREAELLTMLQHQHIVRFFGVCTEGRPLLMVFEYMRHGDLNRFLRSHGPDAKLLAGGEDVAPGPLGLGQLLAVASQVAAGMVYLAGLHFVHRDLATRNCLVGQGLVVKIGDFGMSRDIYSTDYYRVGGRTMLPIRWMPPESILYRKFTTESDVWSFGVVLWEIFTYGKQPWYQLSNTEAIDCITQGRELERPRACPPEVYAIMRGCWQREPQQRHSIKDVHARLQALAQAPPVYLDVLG
T2 sequence (P04629 whole entry V573M, the tested form may be a part): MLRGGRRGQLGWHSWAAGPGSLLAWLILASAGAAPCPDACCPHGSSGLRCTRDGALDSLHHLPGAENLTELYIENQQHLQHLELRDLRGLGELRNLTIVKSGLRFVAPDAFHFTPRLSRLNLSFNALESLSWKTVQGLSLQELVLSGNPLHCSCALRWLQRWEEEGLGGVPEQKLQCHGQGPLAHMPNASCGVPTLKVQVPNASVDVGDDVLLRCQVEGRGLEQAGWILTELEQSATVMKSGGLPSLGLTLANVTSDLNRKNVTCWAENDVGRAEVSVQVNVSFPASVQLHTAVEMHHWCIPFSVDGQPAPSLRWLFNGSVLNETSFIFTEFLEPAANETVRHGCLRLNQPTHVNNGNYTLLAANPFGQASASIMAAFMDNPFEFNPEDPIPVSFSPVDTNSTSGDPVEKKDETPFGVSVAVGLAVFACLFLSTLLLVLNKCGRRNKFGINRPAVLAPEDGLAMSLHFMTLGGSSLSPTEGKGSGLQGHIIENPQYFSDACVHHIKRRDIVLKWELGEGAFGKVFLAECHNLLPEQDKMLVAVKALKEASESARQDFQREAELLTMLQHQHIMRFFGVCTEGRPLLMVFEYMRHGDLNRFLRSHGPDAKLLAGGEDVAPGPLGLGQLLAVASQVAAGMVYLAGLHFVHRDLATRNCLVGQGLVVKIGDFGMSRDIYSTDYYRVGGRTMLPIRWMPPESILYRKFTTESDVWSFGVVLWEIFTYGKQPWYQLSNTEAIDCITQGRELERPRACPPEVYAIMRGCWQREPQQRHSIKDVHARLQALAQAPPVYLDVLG
T1 sequence (Q16620 32-822): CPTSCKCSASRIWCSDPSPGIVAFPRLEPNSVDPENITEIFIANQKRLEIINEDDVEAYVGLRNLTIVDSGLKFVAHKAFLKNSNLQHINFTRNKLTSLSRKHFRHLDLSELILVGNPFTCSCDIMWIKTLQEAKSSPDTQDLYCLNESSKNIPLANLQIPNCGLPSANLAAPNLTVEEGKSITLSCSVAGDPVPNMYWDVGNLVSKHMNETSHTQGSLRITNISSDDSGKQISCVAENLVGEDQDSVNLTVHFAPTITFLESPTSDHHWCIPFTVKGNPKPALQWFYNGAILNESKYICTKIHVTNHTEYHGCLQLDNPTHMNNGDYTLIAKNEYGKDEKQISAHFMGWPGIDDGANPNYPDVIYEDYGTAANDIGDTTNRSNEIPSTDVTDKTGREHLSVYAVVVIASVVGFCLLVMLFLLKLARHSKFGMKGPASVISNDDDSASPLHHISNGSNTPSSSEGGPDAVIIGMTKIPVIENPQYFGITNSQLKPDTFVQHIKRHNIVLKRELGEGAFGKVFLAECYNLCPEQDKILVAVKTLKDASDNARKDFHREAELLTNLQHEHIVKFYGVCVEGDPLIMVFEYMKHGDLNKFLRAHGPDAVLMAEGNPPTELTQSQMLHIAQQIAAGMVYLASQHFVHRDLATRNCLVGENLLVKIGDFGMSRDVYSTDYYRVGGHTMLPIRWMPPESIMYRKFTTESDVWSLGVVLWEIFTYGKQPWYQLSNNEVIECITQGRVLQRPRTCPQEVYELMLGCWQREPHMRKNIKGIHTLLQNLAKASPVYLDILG
T3 sequence (P04629 whole entry, change not shown, the tested form may be a part): as the sequence (P04629 whole entry V573M, the tested form may be a part) above, with M573V counted along it

Row | IC50 (TrkB (h)) [nM] | IC50 (Axl (h)) [nM] | IC50 (TrkA (h)) [nM] | Compound | GI50 [1] [nM] | GI50 (Ba/F3 LMNA-NTRK1 cells) [nM]
1 | 3 | 4 | 3 | COc1cc2nccc(Oc3ccc(NC(=O)c4nn(C5CC5)cc(-c5ccc(F)cc5)c4=O)nc3)c2cc1OC [Compound 31] | 1.4 | 17.3
2 | 3 | 11 | 6 | COc1cc2nccc(Oc3ccc(NC(=O)c4nn(C(C)C)cc(-c5ccc(F)cc5)c4=O)nc3)c2cc1OC [Compound 15, N-(5-((6,7-dimethoxyquinolin-4-yl)oxy)pyridin-2-yl)-5-(4-fluorophenyl)-1-isopropyl-4-oxo-1,4-dihydropyridazine-3-carboxamide] | 0.51 | 3.28

— US20220073496A1, “NOVEL QUINOLINE DERIVATIVE INHIBITOR” (Nanjing Transthera Biosciences Co., Ltd., priority 2018, published 2022)
